Experimental data as given in US4409388A, “1,2,4-Triazole derivatives, and their use as antifertility agents” (Gruppo Lepetit S.p.A., priority 1978, dated 1983).

Assays:
hamsters = assay: antifertility activity, oral route, pregnant hamsters; type: in vivo, Syrian golden hamsters; conditions: for reduction of live fetuses: oral dosage of 20 mg/Kg, hamsters
Protocol: (§1) Representative experiments for assessing antifertility activity were carried out with female Syrian golden hamsters weighing 100 to 130 g. The animals were mated and the presence of sperm in the vagina was taken as evidence of mating. The day sperm was detected and considered day one of pregnancy, since in our laboratories and those of other investigators 90 to 100% of animals that mate as evidenced by vaginal sperm are pregnant.
(§2) Pregnancy was later confirmed at the time of autopsy by presence of fetuses or implantation sites in the uterus.
(§3) Even if an animal aborts the fetus, implantation scars still remain as evidence that the animal has been pregnant.
The animals were autopsied on day 14 of pregnancy and the uteri were examined for evidence of pregnancy (implantation sites, fetal resorptions or live fetuses), hemorrage, and evidence of abnormalities of the uterus, placenta or fetuses. A compound was considered to be active if there was a reduction of live fetuses in at least 60% of the treated animals and the presence of implantation sites proves the animal to have been pregnant. […] The compounds were then studied for dose-activity relationships and the corresponding ED50 values i.e., 100% activity (absence of live fetuses) in 50% of the animals, were also determined. The following table reports the ED50 values of some representative compounds of the invention:
Favorable results were also obtained by administering the compounds of the invention by oral route. The experiments for assessing this property were carried out on hamsters following the same procedure as above, with the obvious exception that the compounds were administered orally instead of subcutaneously.

[1] = test system: female Syrian golden hamsters; assay: post-coital/post-implantation antifertility activity, subcutaneous, pregnant hamsters; type: in vivo; conditions: days 4-8 of pregnancy; for activity according to the criteria (reduction of live fetuses in at least 60% of the treated animals): 10 mg/kg s.c. daily for 5 days, hamsters; for ED50: Mesocricetus auratus, sc, 120 h, s.c. hamsters, daily for 5 days, sesame oil, read-out: ED50 (100% activity, absence of live fetuses, in 50% of the animals)
Protocol: as §1, §2, §3
The animals were autopsied on day 14 of pregnancy and the uteri were examined for evidence of pregnancy (implantation sites, fetal resorptions or live fetuses), hemorrage, and evidence of abnormalities of the uterus, placenta or fetuses.

Compound | ED50 (hamsters; Mesocricetus auratus, po, 120 h, p.o. hamsters, daily for 5 days, days 4-8 of pregnancy) | reduction of live fetuses (hamsters) | activity according to the criteria (reduction of live fetuses in at least 60% of the treated animals) [1] | ED50 [1]
COc1cccc(-c2n[nH]c(-c3ccccc3CO)n2)c1 [Example 1, 5-(2-hydroxymethylphenyl)-3-(3-methoxyphenyl)-1H-1,2,4-triazole] | 10 mg/kg | about 60% | active | 0.08 mg/kg
COc1cccc(-c2nc(-c3ccccc3C=O)n[nH]2)c1 [Example 3, 2-[5-(3-methoxyphenyl)-1H-1,2,4-triazol-3-yl]benzaldehyde] | – | about 60% | active | 0.1 mg/kg
